Laboratory results published in patent publication US9074235B2, “Method for evaluating the improvement of skin elasticity using a mimetic dermis” (AMOREPACIFIC CORPORATION, priority 2010, dated 2015).

Experiments:
[1] = system: dermal mimics (glycated collagen with human neonatal fibroblasts); test: Evaluation of skin elasticity-improving effect using dermal mimics (three-dimensional images); type: cell-based; conditions: observed about 10 minutes after separation from culture insert
Experimental: (1) 40 μl of 10× P buffer (DMEM (Dulbecco's Modified Eagle Medium (DMEM powder, Gibco, USA)), a Ham's F-12 nutrient mixture (F-12 powder, Gibco, USA), 4 ml of an antibiotic-antifungal agent (PSF, Gibco, USA) in 400 ml of sterile distilled water, 40 μl of reconstitution buffer (obtained by dissolving 2.2 g of NaHCO3 and 4.77 g of HEPES in 100 ml of 0.05M NaOH, and filtering the solution) and 2 μl of 5 M NaOH were added to an Epi-tube and sufficiently mixed.
(2) 320 μl of an aqueous solution of normal collagen or an aqueous solution of glycated collagen is added to and well mixed with the mixture of step (1) and using a pipette.
(3) 10^4 human neonatal fibroblasts (HDFn, Cascade Biologics, USA) are added to and well mixed with the solution of step (2) using a pipette so that the fibroblasts are uniformly distributed in the solution.
(4) A culture insert (12 mm, Transwell®, Corning, USA) is placed in a 12-well culture dish, and the mixture is placed in the culture insert and is allowed to react at 37° for 30 minutes so that the aqueous collagen solution is hardened.
(5) After the collagen has been completely hardened, fibroblast culture medium (M106, Cascade Biologics, USA) is added to both the inside and outside of the culture insert and incubated overnight. Then, the dermal mimic is incubated for in about one week while the medium is replaced at 3-day intervals. In this process, dermal remodeling occurs due to the interaction between the fibroblasts and the collagen fibers.
Specifically, in this Example, the following collagens were prepared: non-glycated collagen (normal collagen); collagen glycated by treatment with 62.5 mM of ribose; collagen glycated by treatment with 62.5 mM of ribose together with 10 ppm of tocopherol; and collagen glycated by treatment with 62.5 mM of ribose together with 1 ppm of DPHP. Herein, the ribose used was obtained by dissolving D-ribose (Sigma, USA) in water and filtering the solution through a 0.2 μm filter (Minisart® sartorious stedim biotech, Germany). […]

[2] = system: collagen gel with fibroblasts; test: Collagen gel contraction assay (two-dimensional); type: cell-based, human; conditions: collagen glycated with ribose at 62.5, 125 and 250 mM
Experimental: Specifically, the dermal mimics were prepared according to the method of Reference Example 1, and the glycated collagen solution used in step (2) of the preparation method of Reference Example 1 was obtained by treating collagen with ribose at concentrations of 0, 62.5, 125 and 250 mM to induce collagen glycation. In addition, the ribose used was obtained by dissolving D-ribose (Sigma, USA) in water and filtering the solution through a 0.2 μm filter (Minisart® sartorious stedim biotech, Germany).
A specific method for glycation of collagen is as follows. D-ribose was added to a solution of collagen (obtained by dissolving type I collagen (Sigma, USA) in 0.1% acetic acid to a final concentration of 3 mg/ml) at specific concentrations (62.5, 125 and 250 mM) in a clean bench for preventing the contamination of collagen, and the mixture was placed in a rotation mixer rotatable at 360°, after which the mixture was allowed to react at room temperature for 3 days to induce glycation of the collagen.
In addition, for comparison, a collagen gel contraction assay which is a two-dimensional method was carried out by culturing a collagen gel, obtained by mixing fibroblasts with collagen glycated with the above-described concentrations of ribose, in a general culture dish, and obtaining a digital image of the cultured collagen gel.

Molecule: tocopherol
- breakdown of the dermal mimics (shape/height on three-dimensional image) ([1]; collagen glycated with 62.5 mM ribose together with 10 ppm tocopherol): breakdown of the dermal mimics was inhibited

Molecule: CCCCCCCCCCCCCCCC(=O)O[C@@H]1C[C@@H](C(=O)O)N(C(=O)CCCCCCCCCCCCCCC)C1 [DPHP]
- breakdown of the dermal mimics (shape/height on three-dimensional image) ([1]; collagen glycated with 62.5 mM ribose together with 1 ppm DPHP): breakdown of the dermal mimics was inhibited

Molecule: O=C[C@H](O)[C@H](O)[C@H](O)CO [ribose, D-ribose]
- shape of the dermal mimics (three-dimensional image) ([1]; collagen glycated with 62.5 mM ribose alone): broken down
- contraction of collagen gels (two-dimensional digital image) [2]: not contracted
